From patent US12391683B2, “Therapeutic compounds and methods” (Actio Biosciences, Inc., priority 2022, dated 2025)
pEC50, pIC50: −log10 of the molar value.

Tests used:
TRPA1 channels = target: T1, TRPA1 channels (Homo sapiens, UniProt O75762); assay: TRP Family FLIPR Assay, TRPA1; assay type: cell-based; conditions: CHO cells
T1 construct: expressed in transfected cells; host or cells: CHO
Method: (§1) The compound of Example 5 was tested for selectivity against a panel of Human TRP family ion channels in a TRP Family FLIPR Assay as described below. • 1. TRPC3 channels (human TRPC3 variant 1 gene, expressed in HEK293 cells). • 2. TRPC4 channels (human TRPC4 gene, expressed in HEK293 cells). • 3. TRPC5 channels (human TRPC5 gene, expressed in HEK293 cells). • 4. TRPC6 channels (human TRPC6 gene, expressed in HEK293 cells). • 5. TRPM2 channels (human TRPM2 gene, transiently expressed in HEK293 cells). • 6. TRPM3 channels (human TRPM3 gene, transiently expressed in HEK293 cells). • 7. TRPM4 channels (human TRPM4 gene, expressed in CHO cells). • 8. […]
(§2) Data acquisition was performed via the FLIPR Control software supplied with the FLIPR System (MDS-AT) and data was analyzed using Microsoft Excel (Microsoft Corp., Redmond, WA) or GraphPad Prism. […]
(§3) [formula] where Base is the response at low concentrations of test article, Max is the maximum response at high concentrations, xhalf the EC50, or IC50, the concentration of test article producing either half-maximal activation or inhibition, and rate is the Hill coefficient. […] No assumptions about the fit parameters was made; the fit parameters were determined by the algorithm.
(§4) The effect of each test article was evaluated at eight (8) concentrations: 0.003, 0.01, 0.03, 0.1, 0.3, 1, 3 and 10 μM, n≤4 wells/concentration). […]

Hepatocytes = Hepatocytes predicted clearance, mouse
TRPV3 channels = target: T2, TRPV3 channels (Homo sapiens, UniProt Q8NET8); assay: TRP Family FLIPR Assay, TRPV3; assay type: cell-based; conditions: HEK293 cells (transient)
T2 construct: expressed in transfected cells; host or cells: HEK293 (transient)
T2 sequence (Q8NET8 1-790): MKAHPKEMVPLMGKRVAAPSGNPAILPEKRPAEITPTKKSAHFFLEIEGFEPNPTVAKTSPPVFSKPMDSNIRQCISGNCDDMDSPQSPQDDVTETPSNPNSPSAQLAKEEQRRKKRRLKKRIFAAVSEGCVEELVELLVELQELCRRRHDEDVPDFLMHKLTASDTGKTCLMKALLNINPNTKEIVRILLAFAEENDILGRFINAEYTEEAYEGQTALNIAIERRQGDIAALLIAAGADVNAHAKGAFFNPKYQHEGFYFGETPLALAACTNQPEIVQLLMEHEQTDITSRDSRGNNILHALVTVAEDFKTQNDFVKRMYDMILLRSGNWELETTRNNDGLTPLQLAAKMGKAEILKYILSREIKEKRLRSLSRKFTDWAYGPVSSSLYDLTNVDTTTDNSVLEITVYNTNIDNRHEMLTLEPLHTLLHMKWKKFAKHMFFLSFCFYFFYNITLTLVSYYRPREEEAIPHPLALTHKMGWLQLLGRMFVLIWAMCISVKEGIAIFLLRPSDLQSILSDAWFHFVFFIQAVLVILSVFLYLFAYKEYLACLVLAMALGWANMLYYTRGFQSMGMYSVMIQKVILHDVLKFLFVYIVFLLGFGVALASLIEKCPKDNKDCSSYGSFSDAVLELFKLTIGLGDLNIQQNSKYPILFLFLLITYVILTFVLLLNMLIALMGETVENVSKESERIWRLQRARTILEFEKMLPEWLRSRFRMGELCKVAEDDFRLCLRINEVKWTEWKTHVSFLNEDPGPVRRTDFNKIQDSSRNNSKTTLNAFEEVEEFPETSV
Method: as §1, §2, §3, §4

T1 sequence (O75762 whole entry): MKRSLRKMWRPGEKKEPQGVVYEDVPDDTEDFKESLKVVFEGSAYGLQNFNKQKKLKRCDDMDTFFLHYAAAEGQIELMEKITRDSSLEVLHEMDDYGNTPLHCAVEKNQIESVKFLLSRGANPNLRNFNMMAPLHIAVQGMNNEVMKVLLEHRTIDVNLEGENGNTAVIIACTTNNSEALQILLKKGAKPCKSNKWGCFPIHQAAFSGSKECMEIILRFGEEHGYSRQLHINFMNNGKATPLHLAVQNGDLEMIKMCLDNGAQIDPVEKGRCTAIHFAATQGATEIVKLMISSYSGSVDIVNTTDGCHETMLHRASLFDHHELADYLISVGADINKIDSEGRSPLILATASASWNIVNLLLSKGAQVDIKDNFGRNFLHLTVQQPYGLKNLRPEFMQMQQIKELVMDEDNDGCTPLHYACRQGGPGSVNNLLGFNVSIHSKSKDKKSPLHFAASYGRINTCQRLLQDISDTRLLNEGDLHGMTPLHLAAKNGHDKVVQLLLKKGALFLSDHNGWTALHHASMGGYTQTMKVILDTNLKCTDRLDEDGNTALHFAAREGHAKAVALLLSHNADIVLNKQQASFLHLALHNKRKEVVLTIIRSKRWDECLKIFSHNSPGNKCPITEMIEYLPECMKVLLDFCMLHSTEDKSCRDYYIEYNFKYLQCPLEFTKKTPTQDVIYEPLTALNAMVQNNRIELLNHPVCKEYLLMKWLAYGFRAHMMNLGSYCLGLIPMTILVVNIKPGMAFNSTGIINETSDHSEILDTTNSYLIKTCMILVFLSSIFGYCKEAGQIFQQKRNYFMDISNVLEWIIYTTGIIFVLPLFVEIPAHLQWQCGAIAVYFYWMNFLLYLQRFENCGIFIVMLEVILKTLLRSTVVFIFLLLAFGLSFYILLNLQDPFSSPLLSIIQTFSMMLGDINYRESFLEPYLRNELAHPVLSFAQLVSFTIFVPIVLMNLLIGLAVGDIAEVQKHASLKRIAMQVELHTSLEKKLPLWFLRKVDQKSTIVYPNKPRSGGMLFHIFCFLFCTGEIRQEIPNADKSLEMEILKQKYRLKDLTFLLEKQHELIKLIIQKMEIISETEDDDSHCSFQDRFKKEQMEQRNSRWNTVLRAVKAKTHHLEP

With `CC(C)(O)c1cnc(N2C[C@@]3(CC[C@@H](F)[C@](C)(Cn4cnc5ccc(C#N)cc54)C3)OC2=O)cn1` (single isomer, unassigned) [Example 5] as the compound, how does the pEC50 (TRPA1 channels; agonist mode, vs EMAX of mustard oil 600 μM, read-out: EC50 hTRPA1) read?
The pEC50 was under 5.00.

And the pIC50 (TRPA1 channels; antagonist mode, activated with mustard oil 80 μM, 0.003-10 μM, read-out: IC50 hTRPA1)?
The pIC50 was under 5.00.

And the “Hepatocytes predicted clearance in mouse” value (Hepatocytes)?
The value was 12.8 mL/min/kg.

And the pEC50 (TRPV3 channels; agonist mode, vs EMAX of cannabidiol 300 μM, read-out: EC50 hTRPV3)?
Its pEC50 is under 5.00.

What about the pIC50 (TRPV3 channels; antagonist mode, activated with 2-APB 50 μM, 0.003-10 μM, read-out: IC50 hTRPV3) of the same compound?
Its pIC50 is under 5.00.
